One series deals with A. aerogenes. Put plainly: Agar plate kill test with Ivory soap, A. aerogenes. The conditions noted are these: Klebsiella aerogenes, 48 h, Ivory soap, read-out: Percent Kill of A. aerogenes. The series is classed as cell-based. How it is done:
(§1) Phenyl-2-thienyliodonium chloride, 2,2'-bisthienyliodonium chloride, and, for comparative purposes, diphenyliodonium chloride are individually dispersed in Ivory soap to provide concentrates containing 1 part by weight of iodonium salt to 50 parts by weight of soap. The soap concentrates are serially dispersed and serially diluted with liquid nutrient agar at 42°C. to prepare culture media containing various concentrations of one of the iodonium salts. The culture media are uniformly inoculated with S. aureus and plated in petri dishes. The inoculation is carried out from broth cultures of the named organism containing about 5×10^8 organisms per milliliter in the proportion of one-tenth milliliter of bacterial culture per 20 milliliters of cultur medium containing each test compound. In a check operation, nutrient agar containing the same amount of Ivory soap is similarly inoculated with the same organism. After two days' incubation at 37°C., the plates are examined for microbial growth.
The procedure described above is repeated with varying concentrations of 4-chlorophenyl-2-thienyliodonium chloride, 3,4-dichlorophenyl-2-thienyliodonium chloride, and for comparative purposes bis(4-chlorophenyl)iodonium chloride, phenyl-4-chlorophenyliodonium chloride and bis(2,4-dichlorophenyl)iodoniumchloride in a series of tests wherein the culture media are inoculated individually with the organism A. aerogenes.
The procedure described above is once again repeated with each of 2,2'-bisthienyliodonium chloride, phenyl-2-thienyliodonium chloride, 4-bromophenyl-2-thienyliodonium chloride, bis(4-bromophenyl)iodonium chloride and bis(4-bromophenyl)iodonium bromide in a series of tests wherein the culture media are inoculated individually with the organism A. aerogenes.

The subject of series [1] is S. typhosa. Put plainly: Agar plate kill test with Ivory soap, S. typhosa. The following applies: 48 h, read-out: Percent Kill of S. Typhosa. Format: cell-based. How it is done: as §1
The procedure described above is again repeated in a series of tests wherein the culture media are inoculated individually with the organism S. typhosa and wherein the culture media contain varying concentrations of one of the iodonium salts, as set forth in following Table II.

Series [2] has as its system S. aureus. Put plainly: Agar plate kill test with Ivory soap, S. aureus. The conditions noted are these: 2 days, 37°C. The series is classed as cell-based. How it is done:
as §1

Series [3] concerns S. aureus. Put plainly: Agar dilution MIC in absence of soap, S. aureus. Format: cell-based. The conditions noted are these: Staphylococcus aureus; read-out: Minimum growth inhibitory concentration, S. aureus. How it is done: (§2) The growth-inhibitory activity of the below-indicated compounds against some microorganisms most relevant to the human skin was determined by standard agar dilution techniques to provide the data given in following Table 1.
(§3) In Table 1, the first column gives the chemical structures of the test compounds, while the additional columns give the names of the test organisms and the minimum inhibitory concentration in parts per million (p.p.m.) of the compounds listed for 100% growth inhibition against the particular microorganisms indicated. […] For each p.p.m. of test compound, 50 p.p.m. of Ivory soap was also present in the culture medium for part A of Table 1, while in part B of Table 1, the culture medium was free of any additive other than the test compound. The data for compounds 13 through 16 of part B of Table 1 were taken from Cannon U.S. Pat. No. 3,207,660 while those for compounds 17 and 18 were taken from trade literature.
(In general: In agar dilution the substance is mixed into plates at graded concentrations.)

The subject of series [4] is S. typhosa. Put plainly: Agar dilution MIC in absence of soap, S. typhosa. Format: cell-based. The conditions noted are these: read-out: Minimum growth inhibitory concentration, S. typhosa. How it is done: as §2, §3
Series [5] deals with P. aeruginosa. Briefly: Agar dilution MIC in absence of soap, P. aeruginosa. The conditions noted are these: Pseudomonas aeruginosa; read-out: Minimum growth inhibitory concentration, P. aeruginosa. The series is classed as cell-based. How it is done: as §2, §3
The test system of series [6] is P. aeruginosa. The following applies: absence of soap, 13-16 from Cannon U.S. Pat. No. 3,207,660, 17-18 from trade literature, cited from earlier work.
The subject of another series is mice. The following applies: 12-15 from U.S. Pat. No. 3,207,660, 17, 18 from trade literature, cited from earlier work.
Series [7] has as its system S. typhosa. The following applies: absence of soap; 17-18 from trade literature; cited from earlier work.
The test system of series [8] is S. aureus. The conditions noted are these: absence of soap; 13-16 from Cannon U.S. Pat. No. 3,207,660, 17-18 from trade literature; cited from earlier work.

Results on six compounds are retold here after patent US3944498A, “Germicidal detergent containing a thienyliodonium salt” (The Dow Chemical Company, priority 1973, dated 1976).

Read-outs that look alike come from different tables or passages of the source.

With `c1csc([I+]c2cccs2)c1` [2,2'-bisthienyliodonium chloride], the killing at 5 ppm was 100% in the series with A. aerogenes (5 p.p.m.); 100% in the series with S. typhosa [1]; 100% with S. aureus [2] (Staphylococcus aureus, 48 h, 5 p.p.m., read-out: percent kill of S. aureus).
For `FC(F)(F)c1cccc([I+]c2cccs2)c1` [Compound 12 (Table 1)], the results for the MIC in the series with S. aureus [3], in the series with S. typhosa [4] and in the series on P. aeruginosa [5] were below 1 µg/mL, 10 µg/mL and 50 µg/mL, respectively.
Turning to `Oc1cc(Cl)ccc1Oc1ccc(Cl)cc1Cl` [Irgasan], the “Minimum growth inhibitory concentration, P. aeruginosa” value in the series on P. aeruginosa [6] was “more than 300 ppm”; in the series on P. aeruginosa [6] (listed as Compound 18 (Table 1)), above 300 ppm. Further, the “Oral LD50 (mice)” value with mice is 4,000 mg/kg; in the series with mice (listed as Compound 17 (Table 2)), 4000 mg/kg. In addition, the “Minimum growth inhibitory concentration, S. typhosa” value with S. typhosa [7] is given as 1 ppm. The “Minimum growth inhibitory concentration, S. aureus” value with S. aureus [8] is on record as 1 ppm.
For `[Cl-].c1ccc([I+]c2ccccc2)cc1` [diphenyliodonium chloride, reference compound], the killing at 500 ppm in the series with S. typhosa [1] (500 p.p.m., Ivory soap) came out at 0%. In the series with S. aureus [2] (500 p.p.m.), the “growth of S. aureus” value is recorded as “heavy uniform growth”.
As for `COc1ccc([I+]c2cccc(C(F)(F)F)c2)cc1` [Compound 11 (Table 1)], the results for the MIC in the series on S. aureus [3], with S. typhosa [4] and in the series with P. aeruginosa [5] were 10 µg/mL, 100 µg/mL and 500 µg/mL, respectively.
Turning to `c1ccc([I+]c2cccs2)cc1` [phenyl-2-thienyliodonium chloride, Phenyl-2-thienyliodonium chloride], the killing at […] was 100% in the series on A. aerogenes (2.5 p.p.m.); 100% with S. typhosa [1]; 100% in the series on S. aureus [2] (Staphylococcus aureus, 48 h, 2.5 p.p.m., read-out: percent kill of S. aureus).
